Measured values reported in patent US5302514A, “Maltooligoside derivative, reagent for determining α-amylase activity containing the same as effective ingredient and a process for determining the α-amylase activity using same” (Kikkoman Corporation, priority 1991, dated 1994).

Legend:
[1] = system: human α-amylase (P:S=1:1); test: α-Amylase hydrolysis (increase in absorbance at 400 nm with coupled enzymes); type: biochemical; conditions: for Increase in absorbance for 2 minutes (corrected by the 0 IU/l of α-amylase activity): substrate solution 3.00 mM, 400 nm, 37° C., pH 7.0; for hydrolysis by α-amylase (in words): as understood from Tables 1 and 2
Description: Coupled enzyme solution was prepared by dissolving a commercially available α-glucosidase derived from yeast and a commercially available β-glucosidase derived from almond in a 50 mM phosphate buffer (pH=7.0) containing 40 mM NaCl and 2 mM MgCl2 to a concentration of 117 units/ml and 13 units/ml, respectively. As the commercially available α- and β-glucosidases, those available from Toyobo Co., Ltd. were used.
Standard α-amylase solutions were prepared by dissolving a commercially available human α-amylase (P:S=1:1) in purified water to a concentration of 0, 148, 284, 401 and 525 IU/l, respectively. As the commercially available human α-amylase, Calibzyme.AMY manufactured by International Reagents Corp. was employed. As for the activity of α-amylase, an amount of the enzyme which decomposes 1μ mol of (a commercially available) 2-chloro-4-nitrophenyl β-D-maltopentaoside at 37° C. for one minute was defined as 1 international unit (IU).
The substrate solution (a) was prepared by dissolving 2-chloro-4-nitorphenyl 6^5 -azido-6^5 -deoxy-β-D-maltopentaoside (referred to hereinafter as the substrate of the present invention) obtained in Example 3 in a 50 mM phosphate buffer (pH=7.0) containing 40 mM NaCl and 2 mM MgCl2 to a concentration of 3.00 mM.
The substrate solution (b) was prepared by dissolving 2-chloro-4-nitrophenyl 6^3 -azido-6^3 -deoxy-β-D-maltotrioside (referred to hereinafter as the reference substrate) obtained in the step (1) in a 50 mM phosphate buffer (pH=7.0) containing 40 mM NaCl and 2 mM MgCl2 to a concentration of 3.00 mM.
A coupled enzyme solution was prepared in the same manner as in the step (2) of Example 5.
α-amylase solutions were prepared in the same manner as in the step (3) of Example 5 by dissolving a commercially available human α-amylase (P:S=1:1) in purified water to a concentration of 0, 250 and 500 IU/l, respectively.
The coupled enzyme solution in an amount of 1.0 ml was added with stirring to 250 μl of the α-amylase solution, and the mixture was heated at 37° C. for one minute. Each of the substrate solution in an amount of 2.0 ml was added with stirring to the mixture, and the mixture was heated at 37° C. for 2 minutes before measuring the variation of the absorbance at 400 nm for 2 minutes.
2-chloro-4-nitrophenyl 5^5 -eno-4^5 -O-mesyl-β-D-maltopentaoside (referred to hereinafter as substrate of the present invention) obtained in Example 1 was dissolved in a 50 mM phosphate buffer (pH=7.0) containing 40 mM NaCl and 2 mM MgCl2 to a concentration of 3.00 mM.
2-chloro-4-nitrophenyl 5^3 -eno-4^3 -O-mesyl-β-D-maltotrioside(referred to hereinafter as reference substrate) obtained in the previous step (1) was dissolved in a 50 mM phosphate buffer (pH=7.0) containing 40 mM NaCl an 2 mM MgCl2 to a concentration of 3.00 mM.
α-amylase solutions were prepared in the same manner as in the step (5) of Example 7.
The variations of absorbance were measured in the same manner as in the step (6) of Example 7.

[2] = molecular target: T1, amylase derived from human saliva (human S type α-amylase) (Homo sapiens, UniProt P0DUB6); test: Patterns of action (hydrolyzed product by HPLC), S type α-amylase; type: biochemical; conditions: 0.5 mM substrate, 37° C., 20 minutes
T1 sequence (P0DUB6 16-511): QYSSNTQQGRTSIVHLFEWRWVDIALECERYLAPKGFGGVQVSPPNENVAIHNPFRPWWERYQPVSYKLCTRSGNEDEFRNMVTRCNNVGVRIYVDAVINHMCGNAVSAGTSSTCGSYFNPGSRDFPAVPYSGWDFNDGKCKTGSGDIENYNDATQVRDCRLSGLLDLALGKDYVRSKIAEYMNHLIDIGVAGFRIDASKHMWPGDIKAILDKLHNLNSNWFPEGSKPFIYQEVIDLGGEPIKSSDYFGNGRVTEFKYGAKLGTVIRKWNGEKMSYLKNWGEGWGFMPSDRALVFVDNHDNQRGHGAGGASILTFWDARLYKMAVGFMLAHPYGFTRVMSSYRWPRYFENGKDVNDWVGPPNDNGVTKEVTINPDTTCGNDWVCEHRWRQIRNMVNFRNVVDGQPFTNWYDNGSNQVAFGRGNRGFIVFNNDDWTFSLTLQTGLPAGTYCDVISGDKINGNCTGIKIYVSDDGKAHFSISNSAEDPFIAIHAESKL
Description: (§1) Commercially available human P type and S type α-amylase solutions having a concentration of ca. 500 IU/l were prepared in the same manner as in the step (3) of Example 5.
(§2) To 1.0 ml of the substrate solution was added 100 μl of the α-amylase solution prepared in the paragraph (iii) of the aforementioned hydrolysis rate, and the mixture, after stirred sufficiently, was subjected to reaction at 37° C. for 20 minutes. The hydrolyzed product was determined quantitatively by the high performance liquid chromatography of the reaction mixture.
(§3) S: amylase derived from human saliva.

[3] = molecular target: T2, amylase derived from human pancreatic juice (human P type α-amylase) (Homo sapiens, UniProt P04746); test: Km value, P type α-amylase; type: biochemical; conditions: pH 7.0, 37° C., Lineweaver-Burk
T2 sequence (P04746 16-511): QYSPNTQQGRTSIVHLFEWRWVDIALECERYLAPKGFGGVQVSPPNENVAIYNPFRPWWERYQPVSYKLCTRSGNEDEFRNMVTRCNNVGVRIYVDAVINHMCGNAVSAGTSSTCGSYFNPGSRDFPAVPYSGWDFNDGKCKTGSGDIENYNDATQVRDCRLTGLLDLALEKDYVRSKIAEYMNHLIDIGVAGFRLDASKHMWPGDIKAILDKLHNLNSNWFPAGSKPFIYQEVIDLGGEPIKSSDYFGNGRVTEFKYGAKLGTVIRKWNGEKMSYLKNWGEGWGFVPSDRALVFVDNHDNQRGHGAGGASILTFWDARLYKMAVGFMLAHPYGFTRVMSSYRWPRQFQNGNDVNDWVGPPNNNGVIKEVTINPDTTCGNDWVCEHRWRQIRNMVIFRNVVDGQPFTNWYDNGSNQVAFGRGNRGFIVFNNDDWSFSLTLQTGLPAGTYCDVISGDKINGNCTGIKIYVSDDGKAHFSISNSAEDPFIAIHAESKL
Description: (§4) Km values, hydrolysis rate, water solubility and the patterns of action in the hydrolysis of the present substrates 2-chloro-4-nitrophenyl 5^5 -eno-4^5 -O-mesyl-β-D-maltopentaoside (EMG5CNP) and 2-chloro-4-nitrophenyl 6^5 -azido-6^5 -deoxy- β-D-maltopentaoside (ADG5CNP) obtained in Example were examined in accordance with the following methods.
(§5) Substrate solutions were prepared by dissolving in a 50 mM phosphate buffer (pH=7.0) containing 40 mM NaCl and 2 mM MgCl2 a substrate to 0.16, 0.32, 0.48, 0.64, 0.80 and 0.96 mM, respectively.
(§6) The Km value of each substrate solution was obtained by measuring the hydrolysis rate of the substrate in accordance with the same procedure as in the measurement of hydrolysis rate described below and roughly calculating the Lineweaver-Burk's reciprocal plot (see "Tanpaku-Kohso no Jikken-hou", ed. Takeichi Horio & Jinpei Yamashita, Nanko-do, 1981).
(§7) Each substrate was dissolved in a 50 mM phosphate buffer (pH=7.0) containing 40 mM NaCl and 2 mM MgCl2 to make three substrate solutions in a concentration of 0.8-1.6 times and three substrate solutions in a concentration of 1.6-3.2 times per the roughly calculated Km value in the aforementioned paragraph (ii).
(§8) The Km value was calculated in accordance with the same procedure as in the aforementioned paragraph (ii).
(§9) P: amylase derived from human pancreatic juice, […]

[4] = molecular target: T2, amylase derived from human pancreatic juice (human P type α-amylase); test: Patterns of action (hydrolyzed product by HPLC), P type α-amylase; type: biochemical; conditions: 0.5 mM substrate, 37° C., 20 minutes
Description: as §1, §2, §9

[5] = molecular target: T1, amylase derived from human saliva (human S type α-amylase); test: Hydrolysis rate, S type α-amylase; type: biochemical; conditions: relative to hydrolysis rate of 3 mM G5CNP defined as 10, substrate 7-9 times the Km
Description: (§10) The coupled enzyme solution was prepared in the same manner as in the step (2) of Example 5.
as §1
(§11) With 250 μl of the α-amylase solution prepared in (iii) was mixed 1.0 ml of the coupled enzyme. The mixture was heated at 37° C. for 1 minute, and 2.0 ml of the substrate solution was added with stirring to the mixture. The variation of absorbance at 400 nm was measured for 2 minutes after heating the mixture at 37° C. for 2 minutes. The hydrolysis rate of each substrate, namely the variable absorbance per unit time was expressed with the relative values to the hydrolysis rate of 3 mM G5CNP (the reference substrate) which is defined as 10.
as §3

Solubility in water = type: physicochemical; conditions: 20 g of substrate added to 100 ml of water
Description: To 100 ml of water was added 20 g of a substrate, and the dissolution state was observed.

[6] = molecular target: T2, amylase derived from human pancreatic juice (human P type α-amylase); test: Hydrolysis rate, P type α-amylase; type: biochemical; conditions: relative to hydrolysis rate of 3 mM G5CNP defined as 10, substrate 7-9 times the Km
Description: as §10, §1, §11, §9

[7] = molecular target: T1, amylase derived from human saliva (human S type α-amylase); test: Km value, S type α-amylase; type: biochemical; conditions: pH 7.0, 37° C., Lineweaver-Burk
Description: as §4, §5, §6, §7, §8, §3

Row | Increase in absorbance for 2 minutes (corrected by the 0 IU/l of α-amylase activity) ([1]; Table 2, α-amylase activity 250 IU/l) | Increase in absorbance for 2 minutes (corrected by the 0 IU/l of α-amylase activity) ([1]; Table 2, α-amylase activity 500 IU/l) | hydrolysis by α-amylase (in words) [1] | Patterns of action, hydrolyzed product G2CNP [2] | Patterns of action, hydrolyzed product G3CNP [2] | Patterns of action, hydrolyzed product G4CNP [2] | Patterns of action, hydrolyzed product GCNP [2] | Km [3] | Patterns of action, hydrolyzed product G2CNP [4] | Patterns of action, hydrolyzed product G3CNP [4] | Patterns of action, hydrolyzed product G4CNP [4] | Patterns of action, hydrolyzed product GCNP [4] | Hydrolysis rate [5] | Solubility in water (Solubility in water) | Hydrolysis rate [6] | Km [7] | Increase in absorbance for 2 minutes (corrected by the 0 IU/l of α-amylase activity) ([1]; Table 1, α-amylase activity 250 IU/l) | Increase in absorbance for 2 minutes (corrected by the 0 IU/l of α-amylase activity) ([1]; Table 1, α-amylase activity 500 IU/l) | Structure (SMILES)
1 | 0.001 | 0.002 | hardly hydrolyzed | – | – | – | – | – | – | – | – | – | – | – | – | – | – | – | C=C1O[C@H](O[C@H]2[C@H](O)[C@@H](O)[C@@H](O[C@H]3[C@H](O)[C@@H](O)[C@H](Oc4ccc([N+](=O)[O-])cc4Cl)O[C@@H]3CO)O[C@@H]2CO)[C@H](O)[C@@H](O)[C@@H]1OS(C)(=O)=O [Substrate solution (b) (Table 2), 2-chloro-4-nitrophenyl 5^3-eno-4^3 -O-mesyl-β-D-maltotrioside, reference compound]
2 | – | – | – | 83 mol % | 11 mol % | 4 mol % | 2 mol % | 290 µM | 81 mol % | 8 mol % | 8 mol % | 3 mol % | 10 | Good | 10 | 370 µM | – | – | O=[N+]([O-])c1ccc(O[C@@H]2O[C@H](CO)[C@@H](O[C@H]3O[C@H](CO)[C@@H](O[C@H]4O[C@H](CO)[C@@H](O[C@H]5O[C@H](CO)[C@@H](O[C@H]6O[C@H](CO)[C@@H](O)[C@H](O)[C@H]6O)[C@H](O)[C@H]5O)[C@H](O)[C@H]4O)[C@H](O)[C@H]3O)[C@H](O)[C@H]2O)c(Cl)c1 [Example G5CNP, 2-chloro-4-nitrophenylβ-D-maltopentaoside, reference compound]
3 | – | – | hardly hydrolyzed | – | – | – | – | – | – | – | – | – | – | – | – | – | 0.002 | 0.005 | [N-]=[N+]=NC[C@H]1O[C@H](O[C@H]2[C@H](O)[C@@H](O)[C@@H](O[C@H]3[C@H](O)[C@@H](O)[C@H](Oc4ccc([N+](=O)[O-])cc4Cl)O[C@@H]3CO)O[C@@H]2CO)[C@H](O)[C@@H](O)[C@@H]1O [Substrate solution (b) (Table 1), 2-chloro-4-nitrophenyl 6^3-azido-6^3-deoxy-β-D-maltotrioside, reference compound]
